Assay results published in PubChem BioAssay AID328 (DTP/NCI, 2004).
Inconclusive results and toxic doses are left out. The calls were made as follows: active = survival T/C of 150% or more; inactive = T/C below 125% in these data.

Tested on: BDF1 mice, P388 leukemia ip, median survival T/C
Test: NCI In Vivo Anticancer Drug Screen. Data for tumor model P388 Leukemia (intraperitoneal) in B6D2F1 (BDF1) mice
Settings: endpoint: median survival time, higher = longer survival
How it was run: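 In tumour-bearing mice, survival after compound treatment is set against the vehicle group and given as a quotient.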

[1] = dose: 25.0 mg/kg/injection, schedule: Q01DX009 (ip), vehicle: Klucel (hydroxypropylcellulose) (HPC)
[2] = dose: 50.0 mg/kg/injection, schedule: Q01DX009 (ip), vehicle: Klucel (hydroxypropylcellulose) (HPC)
[3] = dose: 12.5 mg/kg/injection, schedule: Q01DX009 (ip), vehicle: Klucel (hydroxypropylcellulose) (HPC)
[4] = dose: 50.0 mg/kg/injection, schedule: Q01DX009 (ip), vehicle: saline with Tween-80
[5] = dose: 100.0 mg/kg/injection, schedule: Q01DX009 (ip), vehicle: saline with Tween-80
[6] = dose: 200.0 mg/kg/injection, schedule: Q01DX009 (ip), vehicle: saline with Tween-80
[7] = dose: 100.0 mg/kg/injection, schedule: Q04DX003 (ip), vehicle: saline
[8] = dose: 200.0 mg/kg/injection, schedule: Q04DX003 (ip), vehicle: saline
[9] = dose: 12.5 mg/kg/injection, schedule: Q04DX003 (ip), vehicle: saline with Tween-80
[10] = dose: 25.0 mg/kg/injection, schedule: Q04DX003 (ip), vehicle: saline with Tween-80
[11] = dose: 50.0 mg/kg/injection, schedule: Q01DX009 (ip), vehicle: saline
[12] = dose: 100.0 mg/kg/injection, schedule: Q01DX009 (ip), vehicle: saline

Measured: T/C

O=C(/C=C(\CN1CCCCC1)c1ccccc1)c1ccccc1
inactive: [1] 100 % of control | dose: 25.0 mg/kg/injection, schedule: Q04DX003 (ip), vehicle: Klucel (hydroxypropylcellulose) (HPC) 91 % of control | [2] 104 % of control | dose: 50.0 mg/kg/injection, schedule: Q04DX003 (ip), vehicle: Klucel (hydroxypropylcellulose) (HPC) 104 % of control | dose: 100.0 mg/kg/injection, schedule: Q01DX009 (ip), vehicle: Klucel (hydroxypropylcellulose) (HPC) 109 % of control | dose: 100.0 mg/kg/injection, schedule: Q04DX003 (ip), vehicle: Klucel (hydroxypropylcellulose) (HPC) 108 % of control

C[C@@H]1C[C@@]2(C)[C@@H](CC[C@@H]3[C@@H]2CC[C@]2(C)[C@@H](O)CC[C@@H]32)CC1=O
inactive: dose: 6.25 mg/kg/injection, schedule: Q01DX009 (ip), vehicle: Klucel (hydroxypropylcellulose) (HPC) 109 % of control | [3] 109 % of control | [1] 109 % of control

CCCCCCC(=O)/C=C/c1ccc(OC)cc1
inactive: [4] 94 % of control | [5] 103 % of control | [6] 90 % of control

Clc1nc2n[nH]nc2nc1Cl
inactive: dose: 3.13 mg/kg/injection, schedule: Q01DX009 (ip), vehicle: saline 100 % of control | dose: 6.25 mg/kg/injection, schedule: Q01DX009 (ip), vehicle: saline 95 % of control

Cc1ccc2c(c1)NC(c1ccc(C(=O)O)cc1)c1cccn1-2 (stereo not given)
inactive: [4] 86 % of control | [5] 89 % of control | [6] 91 % of control

O=c1[nH]c2nc(Cl)c(Cl)nc2[nH]1
inactive: dose: 50.0 mg/kg/injection, schedule: Q04DX003 (ip), vehicle: saline 113 % of control | [7] 106 % of control | [8] 111 % of control

IC1CCCOC1[n+]1ccccc1 (stereo not given)
inactive: dose: 6.0 mg/kg/injection, schedule: Q01DX009 (ip), vehicle: saline with Tween-80 104 % of control | dose: 12.0 mg/kg/injection, schedule: Q01DX009 (ip), vehicle: saline with Tween-80 109 % of control | [9] 96 % of control | dose: 25.0 mg/kg/injection, schedule: Q01DX009 (ip), vehicle: saline with Tween-80 104 % of control | [10] 107 % of control

CC(=O)OC(CC(O)(C(F)(F)F)C(F)(F)F)C(C)(C)C (stereo not given)
inactive: [9] 90 % of control | [10] 90 % of control | dose: 50.0 mg/kg/injection, schedule: Q04DX003 (ip), vehicle: saline with Tween-80 90 % of control

CCc1cc(CC)n2cnnc2n1
inactive: [11] 89 % of control | [12] 89 % of control

COc1ccc(C2c3cc4c(c(OC)c3CC3OCC(=O)C32)OCO4)cc1OC (stereo not given)
inactive: dose: 50.0 mg/kg/injection, schedule: Q01DX001 (ip), vehicle: saline 100 % of control | dose: 100.0 mg/kg/injection, schedule: Q01DX001 (ip), vehicle: saline 109 % of control | dose: 179.0 mg/kg/injection, schedule: Q01DX010 (ip), vehicle: saline 100 % of control | dose: 200.0 mg/kg/injection, schedule: Q01DX001 (ip), vehicle: saline 104 % of control | dose: 400.0 mg/kg/injection, schedule: Q01DX001 (ip), vehicle: saline 122 % of control
active: dose: 44.8 mg/kg/injection, schedule: Q01DX010 (ip), vehicle: saline 163 % of control | dose: 89.5 mg/kg/injection, schedule: Q01DX010 (ip), vehicle: saline 172 % of control | dose: 100.0 mg/kg/injection, schedule: Q01DX010 (ip), vehicle: other 172 % of control | dose: 200.0 mg/kg/injection, schedule: Q01DX001 (ip), vehicle: other 157 % of control | dose: 400.0 mg/kg/injection, schedule: Q01DX001 (ip), vehicle: other 189 % of control

CCCCCC(C)(C)O
inactive: [11] 95 % of control | [12] 104 % of control | [7] 112 % of control | dose: 200.0 mg/kg/injection, schedule: Q01DX009 (ip), vehicle: saline 104 % of control | [8] 100 % of control

Cc1c2oc3c(C)ccc(C(=O)NCCCc4ccccc4)c3nc-2c(C(=O)NCCCc2ccccc2)c(N)c1=O
inactive: dose: 100.0 mg/kg/injection, schedule: Q04DX002 (ip), vehicle: DMSO 100 % of control | dose: 200.0 mg/kg/injection, schedule: Q04DX002 (ip), vehicle: DMSO 90 % of control

c1ccc2c(c1)CC1CCCCN1C2 (stereo not given)
inactive: [3] 100 % of control | dose: 12.5 mg/kg/injection, schedule: Q01DX009 (ip), vehicle: saline 100 % of control | [1] 105 % of control | dose: 25.0 mg/kg/injection, schedule: Q01DX009 (ip), vehicle: saline 90 % of control | dose: 37.5 mg/kg/injection, schedule: Q04DX003 (ip), vehicle: saline 95 % of control | [2] 100 % of control | [11] 110 % of control | dose: 75.0 mg/kg/injection, schedule: Q04DX003 (ip), vehicle: saline 86 % of control
